{
  "source": "patent US20250230193A1",
  "about": "“CYCLIC COMPOUND HAVING SELECTIVE KRAS INHIBITORY EFFECT ON HRAS AND NRAS” (CHUGAI SEIYAKU KABUSHIKI KAISHA, priority 2022, published 2025)",
  "key": {"[1]": {"biological_target": "GDP-bound NRAS wild-type protein (Homo sapiens, UniProt P01111)", "sequence (P01111 whole entry)": "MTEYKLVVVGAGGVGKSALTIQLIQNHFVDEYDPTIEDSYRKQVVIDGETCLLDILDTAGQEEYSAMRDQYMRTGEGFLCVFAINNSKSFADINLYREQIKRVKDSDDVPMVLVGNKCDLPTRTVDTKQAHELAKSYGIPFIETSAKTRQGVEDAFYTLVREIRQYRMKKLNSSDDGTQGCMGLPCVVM", "assay": "Binding to NRAS by surface plasmon resonance (SPR), Single Cycle Kinetics", "conditions": "SPR; for NRAS/KRAS (ratio of KD value with respect to NRAS to KD value with respect to KRAS): GDP-bound NRAS wild-type vs GDP-bound KRAS wild-type"}, "[2]": {"biological_target": "GDP-bound HRAS wild-type protein (Homo sapiens, UniProt P01112)", "sequence (P01112 whole entry)": "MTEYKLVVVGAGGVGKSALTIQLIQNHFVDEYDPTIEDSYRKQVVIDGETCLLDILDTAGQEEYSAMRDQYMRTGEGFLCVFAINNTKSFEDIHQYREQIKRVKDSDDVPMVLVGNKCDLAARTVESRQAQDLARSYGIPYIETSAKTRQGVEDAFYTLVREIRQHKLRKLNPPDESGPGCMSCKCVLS", "assay": "Binding to HRAS by surface plasmon resonance (SPR), Single Cycle Kinetics", "conditions": "SPR; for HRAS/KRAS (ratio of KD value with respect to HRAS to KD value with respect to KRAS): GDP-bound HRAS wild-type vs GDP-bound KRAS wild-type"}},
  "note": "Where a SMILES comes first, the peptide text is derived from it. Bridges are numbered along the chain shown (N, C = ends). [ ]: non-standard residue; d: D form. The star is where a group is joined. hPhe(3-Cl-4-CF3) = N[C@@H](CCc1ccc(C(F)(F)F)c(Cl)c1)C(=O)O; NPrPhe(4-CF3) = CCCN[C@@H](Cc1ccc(C(F)(F)F)cc1)C(=O)O; NMeGly(cPent) = CN[C@H](C(=O)O)C1CCCC1; Pro(4S-Me) = C[C@@H]1CN[C@H](C(=O)O)C1; NMeD = CN[C@@H](CC(=O)O)C(=O)O; NMeL = CN[C@@H](CC(C)C)C(=O)O; Morpholide = C1CN(*)CCO1; Ac5c = NC1(C(=O)O)CCCC1; Aze = O=C(O)[C@@H]1CCN1; Sar = CNCC(=O)O",
  "data": [
    {"smiles": "CC[C@H](C)[C@@H]1NC(=O)[C@H](CC(C)C)N(C)C(=O)C[C@@H](C(=O)N(C)CC)N(C)C(=O)[C@H](C2CCCC2)N(C)C(=O)C2(CC(C)(C)C2)NC(=O)[C@@H]2C[C@H](C)CN2C(=O)[C@H](CCc2ccc(C(F)(F)F)c(OC)c2)NC(=O)CN(C)C(=O)[C@H](Cc2ccc(C)cc2)N2CC/C=C\\C[C@@H](C2=O)N(C)C(=O)[C@@H]2CCCN2C1=O", "note": "[PP2410]", "values": [
      {"measurement": "NRAS/KRAS (ratio of KD value with respect to NRAS to KD value with respect to KRAS)", "setting": "[1]", "value": "A (a compound having 10 or more and less than 20 is denoted as A)"},
      {"measurement": "HRAS/KRAS (ratio of KD value with respect to HRAS to KD value with respect to KRAS)", "setting": "[2]", "value": "A (a compound having 10 or more and less than 20 is denoted as A)"}
    ]},
    {"smiles": "CC[C@H](C)[C@@H]1NC(=O)[C@H](CC(C)C)N(C)C(=O)C[C@@H](C(=O)N2CCOCC2)N(C)C(=O)[C@H](C2CCCC2)N(C)C(=O)C2(CCCC2)NC(=O)[C@@H]2CCCN2C(=O)[C@H](CCc2ccc(C(F)(F)F)c(Cl)c2)NC(=O)CN(C)C(=O)[C@H](Cc2ccc(F)cc2)N2CCCCC[C@@H](C2=O)N(C)C(=O)CN(C)C1=O", "note": "[PP0612]", "values": [
      {"measurement": "NRAS/KRAS (ratio of KD value with respect to GDP-bound NRAS wild-type protein to KD value with respect to KRAS)", "setting": "[1]", "value": "B (a compound having 3 or more and less than 10 is denoted as B)"},
      {"measurement": "HRAS/KRAS (ratio of KD value with respect to GDP-bound HRAS wild-type protein to KD value with respect to KRAS)", "setting": "[2]", "value": "B (a compound having 3 or more and less than 10 is denoted as B)"}
    ]},
    {"smiles": "CCC[C@H]1C(=O)N[C@@H]([C@@H](C)CC)C(=O)N(C2CC2)CC(=O)N(C)[C@H]2C/C=C\\CCN(C2=O)[C@@H](Cc2ccc(C(F)(F)F)cc2)C(=O)N(C)CC(=O)N[C@@H](CCc2ccc(C(F)(F)F)c(OC)c2)C(=O)N2C[C@H](OCC)C[C@H]2C(=O)N(C)C2(CCC2)C(=O)N(C)[C@@H](C2CCCC2)C(=O)N(C)[C@H](C(=O)N2CCCC2)CC(=O)N1C", "note": "[PP3097]", "values": [
      {"measurement": "NRAS/KRAS (ratio of KD value with respect to GDP-bound NRAS wild-type protein to KD value with respect to KRAS)", "setting": "[1]; GDP-bound wild-type proteins", "value": "A (a compound having 10 or more and less than 20 is denoted as A)"},
      {"measurement": "HRAS/KRAS (ratio of KD value with respect to GDP-bound HRAS wild-type protein to KD value with respect to KRAS)", "setting": "[2]; GDP-bound wild-type proteins", "value": "A (a compound having 10 or more and less than 20 is denoted as A)"}
    ]},
    {"smiles": "CCC[C@H]1C(=O)N[C@@H]([C@@H](C)CC)C(=O)N(C2CC2)CC(=O)N(C)[C@H]2C/C=C\\CCN(C2=O)[C@@H](CC2CCCCC2)C(=O)N(C)CC(=O)N[C@@H](CCc2ccc(C(F)(F)F)c(OC)c2)C(=O)N2C[C@@H](C)C[C@H]2C(=O)N(C)C2(CCC2)C(=O)N(C)[C@@H](C2CCCC2)C(=O)N(C)[C@H](C(=O)N(C)C)CC(=O)N1C", "note": "[PP2372]", "values": [
      {"measurement": "NRAS/KRAS (ratio of KD value with respect to NRAS to KD value with respect to KRAS)", "setting": "[1]", "value": "A (a compound having 10 or more and less than 20 is denoted as A)"},
      {"measurement": "HRAS/KRAS (ratio of KD value with respect to HRAS to KD value with respect to KRAS)", "setting": "[2]", "value": "B (a compound having 3 or more and less than 10 is denoted as B)"}
    ]},
    {"smiles": "CCCN1C(=O)CN(C)C(=O)[C@@H]2CCN2C(=O)[C@H]([C@@H](C)CC)NC(=O)[C@H](CC(C)C)N(C)C(=O)C[C@@H](C(=O)N2CCOCC2)N(C)C(=O)[C@H](C2CCCC2)N(C)C(=O)C2(CCCC2)NC(=O)[C@@H]2C[C@H](C)CN2C(=O)[C@H](CCc2ccc(C(F)(F)F)c(Cl)c2)NC(=O)CN(C)C(=O)[C@@H]1Cc1ccc(C(F)(F)F)cc1", "note": "[PP0453] ([NMeL]I[Aze][Sar][NPrPhe(4-CF3)][Sar][hPhe(3-Cl-4-CF3)][Pro(4S-Me)][Ac5c][NMeGly(cPent)][NMeD]-Morpholide; lactam N-11)", "values": [
      {"measurement": "NRAS/KRAS (ratio of KD value with respect to GDP-bound NRAS wild-type protein to KD value with respect to KRAS)", "setting": "[1]", "value": "B (a compound having 3 or more and less than 10 is denoted as B)"},
      {"measurement": "HRAS/KRAS (ratio of KD value with respect to GDP-bound HRAS wild-type protein to KD value with respect to KRAS)", "setting": "[2]", "value": "C (A compound having a KD ratio of 0.1 or more and less than 3 is denoted as C)"}
    ]},
    {"smiles": "CC[C@H](C)[C@@H]1NC(=O)[C@H](CC(C)C)N(C)C(=O)C[C@@H](C(=O)N2CCOCC2)N(C)C(=O)[C@H](C2CCCC2)N(C)C(=O)C2(CCCC2)NC(=O)[C@@H]2CC(=O)CN2C(=O)[C@H](CCc2cc(F)c(C(F)(F)F)c(F)c2)NC(=O)CN(C)C(=O)[C@H](Cc2ccc(C(F)(F)F)cc2)N2CCCCC[C@@H](C2=O)N(C)C(=O)CN(C)C1=O", "note": "[PP0493]", "values": [
      {"measurement": "NRAS/KRAS (ratio of KD value with respect to GDP-bound NRAS wild-type protein to KD value with respect to KRAS)", "setting": "[1]", "value": "B (a compound having 3 or more and less than 10 is denoted as B)"},
      {"measurement": "HRAS/KRAS (ratio of KD value with respect to GDP-bound HRAS wild-type protein to KD value with respect to KRAS)", "setting": "[2]", "value": "B (a compound having 3 or more and less than 10 is denoted as B)"}
    ]},
    {"smiles": "CCO[C@@H]1C[C@H]2C(=O)NC3(CCC3)C(=O)N(C)[C@@H](C3CCCC3)C(=O)N(C)[C@H](C(=O)N(C)C)CC(=O)N(C)[C@@H](CC)C(=O)N[C@@H]([C@@H](C)CC)C(=O)N(C)CC(=O)N(C)[C@H]3CC(C)=CCN(C3=O)[C@@H](Cc3ccc(C(F)(F)F)cc3)C(=O)N(C)CC(=O)N[C@@H](CCc3cc(F)c(C(F)(F)F)c(F)c3)C(=O)N2C1", "note": "[PP1034]", "values": [
      {"measurement": "NRAS/KRAS (ratio of KD value with respect to NRAS to KD value with respect to KRAS)", "setting": "[1]; KD ratio", "value": "C (A compound having a KD ratio of 0.1 or more and less than 3 is denoted as C)"},
      {"measurement": "HRAS/KRAS (ratio of KD value with respect to HRAS to KD value with respect to KRAS)", "setting": "[2]; KD ratio", "value": "C (A compound having a KD ratio of 0.1 or more and less than 3 is denoted as C)"}
    ]}
  ]
}
